Values of other authors as cited in patent publication US8685950B2, “Use of aromatase inhibitors for treatment of ectopic pregnancy” (Wayne State University, priority 2004, dated 2014).
Structures can show the parent of a compound that is named as a salt. One block for each compound: values may come before it.

How the values were obtained:
[1] = system: primate endometrium
[2] = system: progesterone production; conditions: baboon, early pregnancy
[3] = in vivo
[4] = baboons; effect reversed by diethylstilbestrol
[5] = system: ectopic pregnancy; conditions: ectopic pregnancy patients

amount of estrogen and progesterone receptors [1]: decrease the amount of both receptors
SMILES: C1=C(c2ccccc2)C(c2ccc(OCCN3CCCCC3)cc2)Oc2ccccc21 (stereo not drawn) [CDRI-85/287]

SMILES: CCN(CC)CCOc1ccc(C(O)(Cc2ccc(OC)cc2)c2ccccc2)cc1 (stereo not drawn) [MER-25]
plasma progesterone [2]: depression in plasma progesterone

SMILES: CCC1(c2ccc(N)cc2)CCC(=O)NC1=O (stereo not drawn) [aminoglutethimide]
patients stopping the treatment because of side effects (lethargy, rashes, nausea, fever) [3]: 8-15%

placental progesterone formation and serum progesterone concentrations [4]: decreased
SMILES: CCN(CC)CCOc1ccc(C(O)(Cc2ccc(OC)cc2)c2ccccc2)cc1 (stereo not drawn) [ethamoxytriphetol]

SMILES: CN(Cc1cnc2nc(N)nc(N)c2n1)c1ccc(C(=O)N[C@@H](CCC(=O)O)C(=O)O)cc1 [methotrexate]
period to resolution of the pregnancy [5]: more than three weeks in most patients

SMILES: COc1ccc(C2=C(C(=O)c3ccc(OCCN4CCCC4)cc3)c3ccccc3CC2)cc1 [trioxifene mesylate]
plasma progesterone [2]: no such effect was found
